Measured values reported in patent publication US7879838B2, “Heteroaryl substituted pyrazinyl-piperazine-piperidines with CXCR3 antagonist activity” (Schering Corporation, priority 2005, dated 2011).

Target: T1, Human CXCR3 (N-delta 4) (Homo sapiens, UniProt P49682)
T1 construct: CD8 leader (N); Flag tag; expressed in transfected cells; membranes prepared
T1 sequence (P49682 5-368 limits assumed): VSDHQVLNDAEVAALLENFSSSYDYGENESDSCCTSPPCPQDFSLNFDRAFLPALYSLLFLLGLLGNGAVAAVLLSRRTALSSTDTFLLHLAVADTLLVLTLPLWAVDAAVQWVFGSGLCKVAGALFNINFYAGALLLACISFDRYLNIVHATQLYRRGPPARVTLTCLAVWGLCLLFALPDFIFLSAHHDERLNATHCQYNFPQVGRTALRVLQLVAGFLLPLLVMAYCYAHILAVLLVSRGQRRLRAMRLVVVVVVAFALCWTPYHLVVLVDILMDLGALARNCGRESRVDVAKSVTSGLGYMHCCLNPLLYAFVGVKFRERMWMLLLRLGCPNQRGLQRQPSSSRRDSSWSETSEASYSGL
Assay: Human CXCR3 (N-delta 4) scintillation proximity assay (SPA), [125I] IP-10 binding to Ba/F3-hCXCR3 membranes
Settings: IC50 rating; 25 pM [125I] IP-10, membranes of Ba/F3 cells expressing human CXCR3 (N-delta 4)
Text: The inventive compounds can readily be evaluated to determine activity at The CXCR3 receptors by known methods, such as, for example, Development of Human CXCR3 (N-delta 4) Binding Assay.
Cloning and Expression of Human CXCR3 (N-delta 4):
The DNA encoding human CXCR3 was cloned by PCR using human genomic DNA (Promega, Madison, Wis.) as a template. The PCR primers were designed based on the published sequence of human orphan receptor GPR9 (1) with incorporated restriction sites, a Kozak consensus sequence, CD8 leader and Flag tag. The PCR product was subcloned into the mammalian expression vector pME18Sneo, a derivative of the SR-alpha expression vector (designated as pME18Sneo-hCXCR3 (N-delta 4).
IL-3-dependent mouse pro-B cells Ba/F3 were transfected by electroporation in 0.4 ml Dulbecco's PBS containing 4×10^6 cells with 20 μg of pME18Sneo-hCXCR3 (N-delta 4) plasmid DNA. Cells were pulsed at 400 Volts, 100 OHMs, 960 μFd. The transfected cells were under selection with 1 mg/ml G418 (Life Technologies, Gaithersburg, Md.). G418-resistant Ba/F3 clones were screened for CXCR3 expression by specific binding of [^125I] IP-10 (NEN Life Science Products, Boston, Mass.).
Preparation of Ba/F3-hCXCR3 (N-delta 4) Membranes
Ba/F3 cells expressing human CXCR3 (N-delta 4) were pelleted and resuspended in the lysis buffer containing 10 mM HEPES, pH 7.5 and Complete® protease inhibitors (1 tablet per 100 ml) (Boehringer Mannheim, Indianapolis, Ind.) at a cell density of 20×10^6 cells per ml. After 5 minutes incubation on ice, cells were transferred to 4639 cell disruption bomb (Parr Instrument, Moline, Ill.) and applied with 1,500 psi of nitrogen for 30 minutes on ice. Large cellular debris was removed by centrifugation at 1,000×g. Cell membrane in the supernatant was sedimented at 100,000×g. The membrane was resuspended in the lysis buffer supplemented with 10% sucrose and stored at −80° C. Total protein concentration of the membrane was determined by BCA method from Pierce (Rockford, Ill.).
Human CXCR3 (N-delta 4) Scintillation Proximity Assay (SPA)
For each assay point, 2 μg of membrane was preincubated for 1 hr with 300 μg wheat germ agglutinin (WGA) coated SPA beads (Amersham, Arlington Heights, Ill.) in the binding buffer (50 mM HEPES, 1 mM CaCl2, 5 mM MgCl2, 125 mM NaCl, 0.002% NaN3, 1.0% BSA) at room temperature. The beads were spun down, washed once, resuspended in the binding buffer and transferred to a 96-well Isoplate (Wallac, Gaithersburg, Md.). 25 pM of [^125I] IP-10 with tested compounds in a series of titration were added to start the reaction. After 3 hr reaction at room temperature, the amount of [^125I] IP-10 bound to the SPA beads was determined with a Wallac 1450 Microbeta counter.
The Ki values for the various example compounds of the present invention are given in the afore-mentioned Table 1. From these values, it would be apparent to the skilled artisan that the compounds of the invention have excellent utility CXCR3 antagonists.

| SMILES | IC50 |
| --- | --- |
| CC[C@H]1CN(c2nc(N)c(C(N)=O)nc2Cl)CCN1C1CCN(Cc2ccc(Cl)nc2)CC1 [compound 49] | 25 to 100 nM |
| CC[C@H]1CN(c2nc(N)c(C(=O)NCCNS(C)(=O)=O)nc2Cl)CCN1C1CCN(C(=O)c2ccc(Cl)nc2N)CC1 [compound 50] | 25 to 100 nM |
| CC[C@H]1CN(c2nc(N)c(C(=O)NC3CCOC3)nc2Cl)CCN1C1CCN(C(=O)c2ccc(Cl)nc2N)CC1 (stereo partly drawn) [compound 51] | 25 to 100 nM |
| CC[C@H]1CN(c2nc(N)c(C(=O)NCCN3CCCC3)nc2Cl)CCN1C1CCN(C(=O)c2ccc(Cl)nc2N)CC1 [compound 52] | 25 to 100 nM |
| CC[C@H]1CN(c2nc(N)c(C(=O)NCCS(C)(=O)=O)nc2Cl)CCN1C1CCN(Cc2ccc(Cl)nc2N)CC1 [compound 53] | 25 to 100 nM |
| CC[C@H]1CN(c2nc(N)c(C(=O)NC3CCS(=O)(=O)C3)nc2Cl)CCN1C1CCN(C(=O)c2ccc(Cl)nc2N)CC1 (stereo partly drawn) [compound 54] | 25 to 100 nM |
| CC[C@H]1CN(c2nc(N)c(C(=O)NC3CCOC3=O)nc2Cl)CCN1C1CCN(C(=O)c2ccc(Cl)nc2N)CC1 (stereo partly drawn) [compound 55] | 25 to 100 nM |
| CC[C@H]1CN(c2nc(N)c(C(N)=O)nc2Cl)CCN1C1CCN(C(=O)c2cc(F)c(Cl)nc2Cl)CC1 [compound 56] | 25 to 100 nM |
| CC[C@H]1CN(c2nc(N)c(C(=O)NCc3ccco3)nc2Cl)CCN1C1CCN(C(=O)c2ccc(Cl)nc2N)CC1 [compound 57] | 25 to 100 nM |
| CC[C@H]1CN(c2nc(NCc3ccc(F)c(F)c3)c(C(=O)OC)nc2Cl)CCN1C1CCN(C(=O)c2ccc(Cl)nc2N)CC1 [compound 60] | 25 to 100 nM |
| CC[C@H]1CN(c2nc(N)c(C(=O)NC3COCC3O)nc2Cl)CCN1C1CCN(C(=O)c2ccc(Cl)nc2N)CC1 (stereo partly drawn) [compound 61] | 25 to 100 nM |
| CC[C@H]1CN(c2nc(N)c(C(=O)NCc3cccs3)nc2Cl)CCN1C1CCN(C(=O)c2ccc(Cl)nc2N)CC1 [compound 62] | 25 to 100 nM |
| CC[C@H]1CN(c2nc(N)c(C(=O)NCCO)nc2Cl)CCN1C1CCN(C(=O)c2ccc(C(F)(F)F)nc2N)CC1 [compound 63] | 25 to 100 nM |
| CC[C@H]1CN(c2nc(N)c(C(=O)NCCN(C)C)nc2Cl)CCN1C1CCN(C(=O)c2ccc(Cl)nc2N)CC1 [compound 64] | 25 to 100 nM |
| CC[C@H]1CN(c2nc(N)c(C(=O)NN)nc2Cl)CCN1C1CCN(C(=O)c2ccc(Cl)nc2N)CC1 [compound 65] | 25 to 100 nM |
| CC[C@H]1CN(c2nc(N)c(C(=O)NCCO)nc2Cl)CCN1C1CCN(Cc2ccc(Cl)nc2N2CCOCC2)CC1 [compound 66] | 25 to 100 nM |
| CC[C@H]1CN(c2nc(N)c(C(=O)NCCS(C)(=O)=O)nc2Cl)CCN1C1CCN(C(=O)c2ccc(Cl)nc2N)CC1 [compound 67] | 25 to 100 nM |
| CC[C@H]1CN(c2nc(N)c(C(=O)NCCO)nc2Cl)CCN1C1CCN(C(=O)c2ccc(C(F)(F)F)nc2Cl)CC1 [compound 68] | 25 to 100 nM |
| CC[C@H]1CN(c2nc(N)c(C(=O)NN)nc2Cl)CCN1C1CCN(C(=O)c2ccc(-n3cccc3)nc2)CC1 [compound 69] | 25 to 100 nM |
| CC[C@H]1CN(c2nc(N)c(C(=O)NCCO)nc2Cl)CCN1C1CCN(Cc2ccc(C(F)(F)F)nc2)CC1 [compound 70] | 25 to 100 nM |
| CC[C@H]1CN(c2nc(N)c(C(=O)NN)nc2Cl)CCN1C1CCN(C(=O)c2cnc(Cl)c(Cl)c2)CC1 [compound 71] | 25 to 100 nM |
| CC[C@H]1CN(c2nc(N)c(C(=O)NCCO)nc2Cl)CCN1C1CCN(Cc2ccc(C#N)nc2)CC1 [compound 72] | > 100 nM |
| CC[C@H]1CN(c2nc(N)c(C(=O)NN)nc2Cl)CCN1C1CCN(C(=O)c2cc(F)c(N)nc2Cl)CC1 [compound 73] | > 100 nM |
| CC[C@H]1CN(c2nc(N)c(C(=O)NC3CC3)nc2Cl)CCN1C1CCN(Cc2cc(C)nn2C)CC1 [compound 74] | > 100 nM |

| SMILES | IC50 |
| --- | --- |
| CC[C@H]1CN(c2nc(N)c(C(N)=O)nc2Cl)CCN1C1CCN(Cc2ccc(Cl)n3ccnc23)CC1 [compound 75] | > 100 nM |
| CCOC(=O)C1(NC(=O)c2nc(Cl)c(N3CCN(C4CCN(C(=O)c5ccc(Cl)nc5N)CC4)[C@@H](CC)C3)nc2N)CC1 [compound 76] | > 100 nM |
| CC[C@H]1CN(c2nc(NC(=O)N(C)C)c(C(=O)NC)nc2Cl)CCN1C1CCN(C(=O)c2ccc(Cl)nc2N)CC1 [compound 77] | > 100 nM |
| CC[C@H]1CN(c2nc(N)c(C(=O)NC3CC3)nc2Cl)CCN1C1CCN(C(=O)c2cc(F)c(N)nc2Cl)CC1 [compound 78] | > 100 nM |
| CC[C@H]1CN(c2nc(N)c(C(=O)NCCO)nc2Cl)CCN1C1CCN(C(=O)c2cnc(Cl)nc2C(F)(F)F)CC1 [compound 79] | > 100 nM |
| CCOC(=O)NCc1nc(Cl)c(N2CCN(C3CCN(C(=O)c4ccc(Cl)nc4N)CC3)[C@@H](CC)C2)nc1N [compound 80] | > 100 nM |
| CC[C@H]1CN(c2nc(N)c(C(=O)NC3CC3)nc2Cl)CCN1C1CCN(Cc2c(C)nn(C)c2C)CC1 [compound 81] | > 100 nM |
| CC[C@H]1CN(c2nc(N)c(C(=O)NCC(C)(C)O)nc2Cl)CCN1C1CCN(C(=O)c2ccc(Cl)nc2N)CC1 [compound 82] | > 100 nM |
| CC[C@H]1CN(c2nc(N)c(C(=O)Nc3nccc(=O)[nH]3)nc2Cl)CCN1C1CCN(C(=O)c2ccc(Cl)nc2N)CC1 [compound 83] | > 100 nM |
| CC[C@H]1CN(c2nc(NCC3CC3)c(C(N)=O)nc2Cl)CCN1C1CCN(C(=O)c2ccc(Cl)nc2N)CC1 [compound 84] | > 100 nM |
| CC[C@H]1CN(c2nc(N)c(C(=O)NCCO)nc2Cl)CCN1C1CCN(Cc2ccc(Cl)nn2)CC1 [compound 85] | > 100 nM |
| CC[C@H]1CN(c2nc(N)c(C(=O)NNC(=O)C3CC3)nc2Cl)CCN1C1CCN(C(=O)c2ccc(Cl)nc2N)CC1 [compound 86] | > 100 nM |
| CC[C@H]1CN(c2nc(N)c(C(=O)N3CC(O)C3)nc2Cl)CCN1C1CCN(C(=O)c2ccc(Cl)nc2N)CC1 [compound 87] | > 100 nM |
| CC[C@H]1CN(c2nc(N)c(C(N)=O)nc2Cl)CCN1C1CCN(C(=O)c2ccc(-n3cccc3)nc2)CC1 [compound 88] | > 100 nM |
| CC[C@H]1CN(c2nc(N)c(C(=O)Nc3ncccc3O)nc2Cl)CCN1C1CCN(C(=O)c2ccc(Cl)nc2N)CC1 [compound 89] | > 100 nM |
| CC[C@H]1CN(c2nc(N)c(C(=O)N/C(N)=N/C#N)nc2Cl)CCN1C1CCN(C(=O)c2ccc(Cl)nc2N)CC1 [compound 90] | > 100 nM |
| CC[C@H]1CN(c2nc(N)c(C(=O)NCCO)nc2Cl)CCN1C1CCN(C(=O)c2ccc(Cl)nc2NC)CC1 [compound 91] | > 100 nM |
| CC[C@H]1CN(c2nc(N)c(C(=O)NCCO)nc2Cl)CCN1C1CCN(Cc2ccc(N3CCOCC3)nc2Cl)CC1 [compound 92] | > 100 nM |
| CC[C@H]1CN(c2nc(N)c(C(=O)NC3CCC(O)CC3)nc2Cl)CCN1C1CCN(C(=O)c2ccc(Cl)nc2N)CC1 (stereo partly drawn) [compound 93] | > 100 nM |
| CC[C@H]1CN(c2nc(N)c(C(=O)NCCO)nc2Cl)CCN1C1CCN(Cc2cc3ccccc3nc2Cl)CC1 [compound 94] | > 100 nM |
| CC[C@H]1CN(c2nc(N)c(C(=O)NC(=N)N3CCCC3)nc2Cl)CCN1C1CCN(C(=O)c2ccc(Cl)nc2N)CC1 [compound 95] | > 100 nM |
| CC[C@H]1CN(c2nc(N)c(C(N)=O)nc2Cl)CCN1C1CCN(C(=O)c2cc(F)c(N)nc2Cl)CC1 [compound 96] | > 100 nM |
| CC[C@H]1CN(c2nc(N)c(C(=O)NCCO)nc2Cl)CCN1C1CCN(Cc2ccc(NC3CC3)nc2Cl)CC1 [compound 97] | > 100 nM |
| CC[C@H]1CN(c2nc(N)c(C(=O)NCCCN(C)C)nc2Cl)CCN1C1CCN(C(=O)c2ccc(Cl)nc2N)CC1 [compound 98] | > 100 nM |
